Reference: patent EP0400609A1, “Intravenous solutions with quick action onset” (CIBA-GEIGY AG, priority 1989, dated 1990)
Read-outs that look alike come from different tables or passages of the source.

Key:
[1] = Dissolution of dry preparations in water; type: physicochemical; conditions: without aids, at 20°C
Experimental: Die unter den Nummern 14 bis 17 hergestellten Trockenpräparate lösen sich ohne Hilfsmittel in weniger als einer Minute bei 20°C in Wasser, während sich mikrokristallisiertes Carbamazepin unter den gleichen Bedingungen nicht löst.

[2] = tested on: Tonische Konvulsionen der Kinterextremitäten; assay: Maximal electroshock test in rats; type: in vivo, Ratten; conditions: for ED50: Rattus norvegicus
Excerpt: Die akute Schutzwirkung von Carbamazepin nach intravenöser Verabreichung im Vergleich zur oralen wurde mit Hilfe des maximalen Elektroschocks ermittelt. Die folgenden Methoden wurden verwendet: - Elektroschock Test an Ratten: Tonische Konvulsionen der Kinterextremitäten wurden durch Verabreichung eines Wechselstroms von 50 Hz und 36 mA während 0,63 Sekunden mit Hilfe von Cornealelektroden ausgelöst. Es wurden 10 Ratten pro Dosis und Zeiteinheit verwendet; eine Gruppe diente als Kontrolle. Die Anzahl der Ratten, die keine tonische Konvulsion der Hinterextremitäten aufwiesen, wurde für jede Gruppe bestimmt. Die ED₅₀ wurde mit Hilfe der Regressionsanalyse nach der Methode von Spearman und Kärber berechnet. - Elektroschock Test an Mäusen: Tonische Konvulsionen der Hinterextremitäten wurden durch Verabreichung eines Wechselstromes von 50 Hz und 18 mA während 0,2 Sekunden mittels Cornealelektroden ausgelöst. Für jede Dosis und Zeiteinheit wurden 10 Mäuse verwendet; eine Gruppe diente als Kontrolle. Die Anzahl der Mäuse, die keine tonische Konvulsion der Hinterextremitäten zeigten, wurde für jede Gruppe bestimmt. Die ED₅₀ wurde mit Hilfe der Regressionsanalyse nach der Methode von Spearman und Kärber bestimmt.

[3] = tested on: Tonische Konvulsionen der Hinterextremitäten; assay: Maximal electroshock test in mice; type: in vivo, Mäuse; conditions: for ED50: Mus musculus
Excerpt: Die akute Schutzwirkung von Carbamazepin nach intravenöser Verabreichung im Vergleich zur oralen wurde mit Hilfe des maximalen Elektroschocks ermittelt. Die folgenden Methoden wurden verwendet: - Elektroschock Test an Ratten: Tonische Konvulsionen […] durch Verabreichung eines Wechselstroms von 50 Hz und 36 mA während 0,63 Sekunden mit Hilfe von Cornealelektroden ausgelöst. Es wurden 10 Ratten pro Dosis und Zeiteinheit verwendet; eine Gruppe diente als Kontrolle. Die Anzahl der Ratten, die keine tonische Konvulsion […], wurde für jede Gruppe bestimmt. Die ED50 wurde mit Hilfe der Regressionsanalyse nach der Methode von Spearman und Kärber berechnet. - Elektroschock Test an Mäusen: Tonische Konvulsionen […] durch Verabreichung eines Wechselstromes von 50 Hz und 18 […] jede Dosis und Zeiteinheit wurden 10 Mäuse verwendet; eine Gruppe diente als Kontrolle. Die Anzahl der Mäuse, die keine tonische Konvulsion […], wurde für jede Gruppe bestimmt. Die ED50 wurde mit Hilfe der Regressionsanalyse nach der Methode von Spearman und Kärber bestimmt.

NC(=O)N1c2ccccc2C=Cc2ccccc21 [Carbamazepin, 5H-Dibenz[b,f]azepin-5-carboxamid]
Auflösung in Wasser [1]: nicht löst | ED50 ([2]; 2.5 min, intravenous, 2,5 min after dosing, read-out: ED₅₀ in mg/kg intravenös Ratten): 1.9 mg/kg | ED50 ([2]; 2.5 min, oral, 2,5 min after dosing, read-out: ED₅₀ in mg/kg oral Ratten): > 60 mg/kg | ED50 ([2]; 5 min, intravenous, 5 min after dosing, read-out: ED₅₀ in mg/kg intravenös Ratten): 1.6 mg/kg | ED50 ([2]; 5 min, oral, 5 min after dosing, read-out: ED₅₀ in mg/kg oral Ratten): 60 mg/kg | ED50 ([2]; 0.25 h, intravenous, 15 min after dosing, read-out: ED₅₀ in mg/kg intravenös Ratten): 2.5 mg/kg | ED50 ([2]; 0.25 h, oral, 15 min after dosing, read-out: ED₅₀ in mg/kg oral Ratten): 15.4 mg/kg | ED50 ([2]; 0.5 h, intravenous, 30 min after dosing, read-out: ED₅₀ in mg/kg intravenös Ratten): 3 mg/kg | ED50 ([2]; 0.5 h, oral, 30 min after dosing, read-out: ED₅₀ in mg/kg oral Ratten): 9.6 mg/kg | ED50 ([2]; 1 h, intravenous, 60 min after dosing, read-out: ED₅₀ in mg/kg intravenös Ratten): 2.5 mg/kg | ED50 ([2]; 1 h, oral, 60 min after dosing, read-out: ED₅₀ in mg/kg oral Ratten): 10 mg/kg | ED50 ([2]; 2 h, intravenous, 120 min after dosing, read-out: ED₅₀ in mg/kg intravenös Ratten): 4 mg/kg | ED50 ([2]; 2 h, oral, 120 min after dosing, read-out: ED₅₀ in mg/kg oral Ratten): 12.5 mg/kg | Schutzwirkung, % bei 10 mg/kg, Ratten ([2]; intravenous, 240 min after dosing, 10 mg/kg, printed in place of an ED₅₀): 40 % bei 10 mg/kg | ED50 ([3]; 2.5 min, intravenous, 2,5 min after dosing, read-out: ED₅₀ in mg/kg intravenös Mäuse): 5.4 mg/kg | ED50 ([3]; 5 min, intravenous, 5 min after dosing, read-out: ED₅₀ in mg/kg intravenös Mäuse): 6.2 mg/kg | ED50 ([3]; 5 min, oral, 5 min after dosing, read-out: ED₅₀ in mg/kg oral Mäuse): 22.7 mg/kg | ED50 ([3]; 0.25 h, intravenous, 15 min after dosing, read-out: ED₅₀ in mg/kg intravenös Mäuse): 5.4 mg/kg | ED50 ([3]; 0.25 h, oral, 15 min after dosing, read-out: ED₅₀ in mg/kg oral Mäuse): 22.3 mg/kg | ED50 ([3]; 0.5 h, intravenous, 30 min after dosing, read-out: ED₅₀ in mg/kg intravenös Mäuse): 6.2 mg/kg | ED50 ([3]; 0.5 h, oral, 30 min after dosing, read-out: ED₅₀ in mg/kg oral Mäuse): 10.7 mg/kg | ED50 ([3]; 1 h, intravenous, 60 min after dosing, read-out: ED₅₀ in mg/kg intravenös Mäuse): 9.3 mg/kg | ED50 ([3]; 1 h, oral, 60 min after dosing, read-out: ED₅₀ in mg/kg oral Mäuse): 13 mg/kg | ED50 ([3]; 2 h, intravenous, 120 min after dosing, read-out: ED₅₀ in mg/kg intravenös Mäuse): 15.8 mg/kg | ED50 ([3]; 2 h, oral, 120 min after dosing, read-out: ED₅₀ in mg/kg oral Mäuse): 27 mg/kg | ED50 ([3]; 4 h, intravenous, 240 min after dosing, read-out: ED₅₀ in mg/kg in Mäuse): > 20 mg/kg | Schutzwirkung, % bei 60, oral Mäuse ([3]; oral, 2,5 min after dosing, at 60 (column unit mg/kg), printed in place of an ED₅₀): 10 % bei 60
